pIC50: −log10 of the molar value. Read-outs that look alike come from different tables or passages of the source.
Tests used:
Assay type in all cases: cell-based
MV-4-11 cells = assay: Inhibition of MV-4-11 cell proliferation (MTS, 7 days); details: 7 days, MTS, Table 3, read-out: MV-4-11 Cells Inhibition Activity IC50
Description: MV-4-11 cells were cultured in IMDM with 10% fetal bovine serum, collected, and diluted to the appropriate cell concentration for a 7-day treatment period. A 96-well plate was used, and 180 μL of cell suspension was added to each well, resulting in a cell count of 2,000 per well. For the control wells, 20 μL of DMSO at a final concentration of 0.2% was added. The compounds were diluted from a 10 mM stock solution in a five-fold gradient, and 20 μL was added to the compound wells (with a final DMSO concentration of 0.2%). The cells were incubated in a 37° C., 5% CO2 incubator for 7 days. After preparing the reaction solution using the MTS reagent kit (Promega, G5430), 20 μL was added to each well, and the cells were incubated in the incubator for 3-4 hours. The absorbance at 490 nm was measured using a microplate reader, with the absorbance at 690 nm as the background value. The final data was calculated as OD490-OD690. The inhibition rate of the compounds was calculated using the formula: […]
The IC50 values for proliferation inhibition were calculated using GraphPad Prism 5.0. The experiments were repeated three times, with three parallel experiments for each, and the mean and standard deviation were calculated.
The cell activity test results are shown in Table 3: A indicates IC50<1 μM, B indicates 1 µM≤IC50≤20 μM, and C indicates IC50>20 μM.

MM.1S cells = assay: Effect of the compound on MM.1S cell proliferation (MTS, 7 days); details: 7 days, MTS, Table 1, read-out: MM.1S Cells Inhibition Activity IC50
Description: MM.1S cells were cultured in 1640 medium supplemented with 10% fetal bovine serum, then collected and diluted to the desired cell concentration after 7 days of treatment. A total of 180 μL of cell suspension was added to each well in a 96-well cell plate, ensuring 20,000 cells per well. For the control group, 20 μL of 0.2% DMSO was added to each well. Compounds were diluted in a 5-step gradient from a 10 mM stock solution, and 20 μL of each dilution was added to the compound-containing wells (with a final DMSO concentration of 0.2%). The cells were incubated in a 37° C., 5% CO2 incubator for 7 days. Afterward, 20 μL of the MTS reagent (Promega, G5430) was added to each well, followed by incubation for 3-4 hours in a 37° C., 5% CO2 incubator. Absorbance at 490 nm was measured using a microplate reader, with 690 nm absorbance as the background. The final raw data was calculated as OD490-OD690. The compound inhibition rate was calculated using the formula: […]
The IC50 for the compound's proliferative inhibition was fitted using GraphPad Prism 5.0. The experiment was repeated three times, and the average and standard deviation were calculated using three parallel experiments per trial.

Mino cells = assay: Inhibition of cell proliferation of Mino cells (MTS, 3 days); details: 3 days, MTS, Table 2, read-out: Mino Cells Inhibition Activity IC50
Description: Mino cells were cultured with RPMI-1640 medium supplemented with 15% fetal bovine serum, and collected. The cell concentration was diluted according to a 3-day treatment period, and 90 μL of the cell suspension was added to each well of a 96-well plate, resulting in 8000 cells per well. For control wells, 10 μL of DMSO at a final concentration of 0.2% was added. The compounds were diluted in a 5-fold gradient from a 10 mM stock solution, and 10 μL of each compound solution was added to the experimental wells (with a final DMSO concentration of 0.2%). The cells were incubated in a 37° C., 5% CO2 incubator for 3 days. After preparing the reaction mixture using the MTS reagent kit (Promega, G5430), 20 μL was added to each well, and the cells were incubated for 3-4 hours at 37° C., 5% CO2.
The absorbance at 490 nm was read using a microplate reader, with the absorbance at 690 nm used as the background. The final raw data was calculated as OD490-OD690. The inhibition rate of the compounds was calculated using the formula: Inhibition rate=(OD DMSO−OD compound)/(OD DMSO−OD blank)×100%. The IC50 values for cell proliferation inhibition of the compounds were fitted using GraphPad Prism 5.0. The experiment was repeated three times, with the average and standard deviation calculated from three parallel experiments each time.

| SMILES | pIC50 (MV-4-11 cells; Homo sapiens, MV4-11, 168 h) | pIC50 (MM.1S cells; Homo sapiens, MM1.S, 168 h) | pIC50 (MV-4-11 cells) | pIC50 (MM.1S cells) | pIC50 (Mino cells; Homo sapiens, MINO, 72 h) | pIC50 (Mino cells) |
| --- | --- | --- | --- | --- | --- | --- |
| O=C1CCC(N2C(=O)c3cccc(NCc4ncc(-c5ccccc5Cl)o4)c3C2=O)C(=O)N1 (stereo not drawn) [Example 66, 4-(((5-(2-Chlorophenyl)oxazol-2-yl)methyl)amino)-2-(2,6-Dioxopiperidin-3-yl)isoindolin-1,3-dione] | > 6.00 | 6.82 to 7.52 | – | – | < 6.92 | – |
| O=C1CCC(N2C(=O)c3cccc(NCc4cnc(-c5ccccc5F)o4)c3C2=O)C(=O)N1 (stereo not drawn) [Example 71, 2-(2,6-Dioxopiperidin-3-yl)-4-(((2-(2-Fluorophenyl)oxazol-5-yl)methyl)amino)isoindolin-1,3-dione] | > 6.00 | > 7.82 | – | – | > 7.22 | – |
| O=C1CCC(N2C(=O)c3cccc(NCc4ncc(-c5ccc(F)cc5)o4)c3C2=O)C(=O)N1 (stereo not drawn) [Example 72, 2-(2,6-Dioxopiperidin-3-yl)-4-(((5-(4-Fluorophenyl)oxazol-2-yl)methyl)amino)isoindolin-1,3-dione] | > 6.00 | > 7.82 | – | – | < 6.92 | – |
| O=C1CCC(N2C(=O)c3cccc(NCc4cnc(-c5ccc(Cl)c(Cl)c5)o4)c3C2=O)C(=O)N1 (stereo not drawn) [Example 73, 4-(((2-(3,4-Dichlorophenyl)oxazol-5-yl)methyl)amino)-2-(2,6-Dioxopiperidin-3-yl)isoindolin-1,3-dione] | > 6.00 | 7.52 to 7.82 | – | – | < 6.92 | – |
| O=C1CCC(N2C(=O)c3cccc(NCc4cnc(CN5CC(N6CCOCC6)C5)o4)c3C2=O)C(=O)N1 (stereo not drawn) [Example 80] | > 6.00 | < 6.82 | – | – | < 6.92 | – |
| N#Cc1ccc(N2CCN(Cc3ncc(CNc4cccc5c4C(=O)N(C4CCC(=O)NC4=O)C5=O)o3)CC2)c(F)c1 (stereo not drawn) [Example 81] | 4.70 to 6.00 | 6.82 to 7.52 | – | – | < 6.92 | – |
| O=C1CCC(N2C(=O)c3cccc(NCc4cnc(CN5CCC(N6CCOCC6)CC5)o4)c3C2=O)C(=O)N1 (stereo not drawn) [Example 87] | < 4.70 | 6.82 to 7.52 | – | – | < 6.92 | – |
| CN1CCN(Cc2ncc(CNc3cccc4c3C(=O)N(C3CCC(=O)NC3=O)C4=O)o2)CC1 (stereo not drawn) [Example 91] | 4.70 to 6.00 | < 6.82 | – | – | < 6.92 | – |
| O=C1CCC(N2C(=O)c3cccc(NCc4cnc(-c5ccccc5Cl)o4)c3C2=O)C(=O)N1 (stereo not drawn) [Example 92, 4-(((2-(2-Chlorophenyl)oxazol-5-yl)methyl)amino)-2-(2,6-Dioxopiperidine-3-yl)isoindoline-1,3-dione] | – | – | > 6.00 | > 7.82 | – | < 6.92 |
| O=C1CCC(N2C(=O)c3cccc(NCc4ncc(-c5ccccc5F)o4)c3C2=O)C(=O)N1 (stereo not drawn) [Example 95, 2-(2,6-Dioxopiperidine-3-yl)-4-(((5-(2-Fluorophenyl)oxazol-2-yl)methyl)amino)isoindoline-1,3-dione] | < 4.70 | 6.82 to 7.52 | – | – | < 6.92 | – |
| O=C1CCC(N2C(=O)c3cccc(NCc4cnc(-c5cccc(OC6CC6)c5)o4)c3C2=O)C(=O)N1 (stereo not drawn) [Example 96, 4-(((2-(Cyclopropoxyphenyl)oxazol-5-yl)methyl)amino)-2-(2,6-Dioxopiperidine-3-yl)isoindoline-1,3-dione] | > 6.00 | > 7.82 | – | – | < 6.92 | – |
| O=C1CCC(N2C(=O)c3cccc(NCc4nnc(-c5ccccc5)o4)c3C2=O)C(=O)N1 (stereo not drawn) [Example 98, 2-(2,6-Dioxopiperidine-3-yl)-4-(((5-Phenyl-1,3,4-oxadiazol-2-yl)methyl)amino)isoindoline-1,3-dione] | 4.70 to 6.00 | 7.52 to 7.82 | – | – | < 6.92 | – |
| O=C1CCC(N2C(=O)c3cccc(NCc4cnc(-c5ccc(OC6CC6)cc5)s4)c3C2=O)C(=O)N1 (stereo not drawn) [Example 103, 4-(((2-(4-Cyclopropoxyphenyl)thiazol-5-yl)methyl)amino)-2-(2,6-Dioxopiperidine-3-yl)isoindoline-1,3-dione] | 4.70 to 6.00 | > 7.82 | – | – | < 6.92 | – |

More lines, main results first:

| pIC50 (MV-4-11 cells; Homo sapiens, MV4-11, 168 h) | pIC50 (MM.1S cells; Homo sapiens, MM1.S, 168 h) | pIC50 (MV-4-11 cells) | pIC50 (MM.1S cells) | SMILES | pIC50 (Mino cells; Homo sapiens, MINO, 72 h) | pIC50 (Mino cells) |
| --- | --- | --- | --- | --- | --- | --- |
| > 6.00 | 6.82 to 7.52 | – | – | O=C1CCC(N2C(=O)c3cccc(NCc4ncc(-c5cccc(Cl)c5)o4)c3C2=O)C(=O)N1 (stereo not drawn) [Example 65, 4-(((5-(3-Chlorophenyl)oxazol-2-yl)methyl)amino)-2-(2,6-Dioxopiperidin-3-yl)isoindolin-1,3-dione] | < 6.92 | – |
| > 6.00 | 6.82 to 7.52 | – | – | O=C1CCC(N2C(=O)c3cccc(NCc4cnc(-c5ccccc5Cl)s4)c3C2=O)C(=O)N1 (stereo not drawn) [Example 69, 4-(((2-(2-Chlorophenyl)thiazol-5-yl)methyl)amino)-2-(2,6-Dioxopiperidin-3-yl)isoindolin-1,3-dione] | < 6.92 | – |
| 4.70 to 6.00 | > 7.82 | – | – | O=C1CCC(N2C(=O)c3cccc(NCc4cnc(-c5cccc(Cl)c5Cl)o4)c3C2=O)C(=O)N1 (stereo not drawn) [Example 74, 4-(((2-(2,3-Dichlorophenyl)oxazol-5-yl)methyl)amino)-2-(2,6-Dioxopiperidin-3-yl)isoindolin-1,3-dione] | < 6.92 | – |
| > 6.00 | 6.82 to 7.52 | – | – | O=C1CCC(N2C(=O)c3cccc(NCc4cnc(-c5ccc(Cl)cc5Cl)o4)c3C2=O)C(=O)N1 (stereo not drawn) [Example 76, 4-(((2-(2,4-Dichlorophenyl)oxazol-5-yl)methyl)amino)-2-(2,6-Dioxopiperidin-3-yl)isoindolin-1,3-dione] | < 6.92 | – |
| 4.70 to 6.00 | 6.82 to 7.52 | – | – | O=C1CCC(N2C(=O)c3cccc(NCc4cnc(-c5cc(Cl)ccc5Cl)o4)c3C2=O)C(=O)N1 (stereo not drawn) [Example 77] | < 6.92 | – |
| > 6.00 | < 6.82 | – | – | C[C@@H]1CN(Cc2ncc(CNc3cccc4c3C(=O)N(C3CCC(=O)NC3=O)C4=O)o2)C[C@H](C)O1 (stereo partly drawn) [Example 79, 4-(((2-(((2R,6S)-2,6-Dimethylmorpholino)methyl)oxazol-5-yl)methyl)amino)-2-(2,6-Dioxopiperidin-3-yl)isoindoline-1,3-dione] | < 6.92 | – |
| > 6.00 | < 6.82 | – | – | O=C1CCC(N2C(=O)c3cccc(NCc4cnc(CN5CCOCC5)o4)c3C2=O)C(=O)N1 (stereo not drawn) [Example 82] | < 6.92 | – |
| – | – | > 6.00 | > 7.82 | O=C1CCC(N2C(=O)c3cccc(NCc4cnc(-c5ccc(F)cc5)o4)c3C2=O)C(=O)N1 (stereo not drawn) [Example 93, 2-(2,6-Dioxopiperidine-3-yl)-4-(((2-(4-Fluorophenyl)oxazol-5-yl)methyl)amino)isoindoline-1,3-dione] | – | > 7.22 |
| 4.70 to 6.00 | > 7.82 | – | – | O=C1CCC(N2C(=O)c3cccc(NCc4cnc(-c5ccccc5OC5CC5)o4)c3C2=O)C(=O)N1 (stereo not drawn) [Example 97, 4-(((2-(2-Cyclopropoxyphenyl)oxazol-5-yl)methyl)amino)-2-(2,6-Dioxopiperidine-3-yl)isoindoline-1,3-dione] | < 6.92 | – |
| 4.70 to 6.00 | 6.82 to 7.52 | – | – | O=C1CCC(N2C(=O)c3cccc(NCc4nnc(-c5ccccc5)s4)c3C2=O)C(=O)N1 (stereo not drawn) [Example 99, 2-(2,6-Dioxopiperidine-3-yl)-4-(((5-Phenyl-1,3,4-thiadiazol-2-yl)methyl)amino)isoindoline-1,3-dione] | < 6.92 | – |
| 4.70 to 6.00 | > 7.82 | – | – | O=C1CCC(N2C(=O)c3cccc(NCc4cnc(-c5cccc(OC6COC6)c5)o4)c3C2=O)C(=O)N1 (stereo not drawn) [Example 100] | < 6.92 | – |
